The values that follow come from ChEMBL document CHEMBL1130897, “Novel inhibitors of bacterial two-component systems with gram positive antibacterial activity: pharmacophore identification based on the screening hit closantel” (Bioorg Med Chem Lett, 1998).

Values after ≈ are worked out from the molar mass of the structure shown. Some results are limits rather than exact numbers.

By IC50 is commonly meant the concentration at which inhibition is half-maximal. Broadly, the MIC is the smallest concentration in the dilution series that meets the test's criterion for growth inhibition. In general, logP refers to the decadic logarithm of the partition coefficient of the neutral form, usually between octanol and water. A higher logP goes with higher lipophilicity.

For series [1], the target named is T1, KinA/Spo0F (sporulation kinase A/sporulation initiation phosphotransferase F) (Bacillus subtilis (strain 168), UniProt P06628+P16497).
T1 sequence (P06628 whole entry): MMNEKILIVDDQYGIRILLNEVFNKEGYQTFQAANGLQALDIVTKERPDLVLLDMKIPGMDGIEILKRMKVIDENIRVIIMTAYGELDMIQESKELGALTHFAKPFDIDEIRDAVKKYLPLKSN
T1 sequence (P16497 whole entry): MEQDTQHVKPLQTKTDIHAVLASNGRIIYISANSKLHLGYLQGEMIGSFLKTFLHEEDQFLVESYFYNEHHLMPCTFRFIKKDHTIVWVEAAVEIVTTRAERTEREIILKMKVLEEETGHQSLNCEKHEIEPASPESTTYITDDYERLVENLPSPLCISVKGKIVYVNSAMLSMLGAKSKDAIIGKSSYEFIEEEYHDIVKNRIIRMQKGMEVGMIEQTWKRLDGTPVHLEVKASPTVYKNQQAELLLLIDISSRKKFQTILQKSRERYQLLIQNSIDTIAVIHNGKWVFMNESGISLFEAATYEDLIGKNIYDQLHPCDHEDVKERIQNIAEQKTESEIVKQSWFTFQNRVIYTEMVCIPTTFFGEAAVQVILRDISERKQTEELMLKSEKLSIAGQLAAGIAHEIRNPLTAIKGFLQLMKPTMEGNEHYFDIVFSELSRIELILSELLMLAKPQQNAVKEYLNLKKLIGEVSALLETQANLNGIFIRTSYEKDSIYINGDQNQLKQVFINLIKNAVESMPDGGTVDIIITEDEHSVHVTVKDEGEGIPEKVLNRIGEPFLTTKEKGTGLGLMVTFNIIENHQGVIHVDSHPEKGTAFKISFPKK
Nature of the series: Inhibition of histidine protein kinase (KinA) phosphorylation in the presence of response regulator (Spo0F). Format: protein assay.

In series [2] the test system is Enterococcus faecium. Nature of the series: Compound was tested for its antibacterial activity against Enterococcus faecium (Vancomycin resistant, VRE) OC 3312. Format: functional.
Series [3] relates to Enterococcus faecalis. The series is described as follows: Compound was tested for its antibacterial activity against Enterococcus faecalis OC 3041. Format: functional.
The subject of series [4] is Staphylococcus aureus. The series is described as follows: Compound was tested for its antibacterial activity against MRSA (methicillin resistant) OC 2089. Type of series: functional.
Series [5] deals with Staphylococcus aureus. The series is described as follows: Compound was tested for its antibacterial activity against Staph aureus ATCC 29213. Format: functional.
The nature of series [6]: Partition coefficient (logP). Type of series: physicochemical. The following applies: octanol/water.

As to `O=C(Nc1ccc(Cl)c(Cl)c1)c1cc(Cl)cc(Cl)c1`, the IC50 in series [1] is over 500 µM.
For `Oc1c(Cl)cc(Cl)cc1/C=C/c1ccc(Cl)c(Cl)c1`, the IC50 in series [1] was over 500 µM.
Regarding `O=C(Nc1ccccc1)c1cc(Cl)cc(Cl)c1O`, the IC50 in series [1] came to 385 µM.
Same read-out and setting: in the case of `O=C(NCc1ccc(Cl)c(Cl)c1)c1cc(Cl)cc(Cl)c1O` it was over 500 µM; in that of `Cc1cc(NC(=O)c2cc(Cl)cc(Cl)c2O)c(Cl)cc1C(C#N)c1ccc(Cl)cc1` (stereo unspecified), 4.8 µM.
As to `O=C(Nc1ccc(Cl)c(Cl)c1)c1cc(Cl)c(O)c(Cl)c1`, the minimal inhibitory concentration (MIC) worked out at 64 µg/mL (≈ 182 µM) in series [2], 64 µg/mL (≈ 182 µM) in series [3], 16 µg/mL (≈ 45.6 µM) in series [4] and 16 µg/mL (≈ 45.6 µM) in series [5]. Besides, the half-maximal inhibitory concentration (IC50) in series [1] came out at 98 µM.
`Cc1cc(N(C)C(=O)c2cc(I)cc(I)c2O)c(Cl)cc1C(C#N)c1ccc(Cl)cc1` (stereo unspecified): the IC50 in series [1] is over 500 µM.
The same measure, in the same setting: for `O=C(Nc1ccc(Cl)c(Cl)c1)c1cc(I)cc(I)c1O` the value was 22 µM.
Same read-out and setting: for `Cc1cc(NC(=O)c2cc(I)c(O)c(I)c2)c(Cl)cc1C(C#N)c1ccc(Cl)cc1` (stereo unspecified) the value was 9 µM.
The same measure, in the same setting: in the case of `O=C(Nc1ccc(Cl)c(Cl)c1)Nc1cc(Cl)cc(Cl)c1O` it was 365 µM.
In the case of `O=C(Nc1cc(Cl)cc(Cl)c1O)c1ccc(Cl)c(Cl)c1`, the MIC in series [2] amounted to 1 µg/mL (≈ 2.85 µM); in series [3] it was 2 µg/mL (≈ 5.7 µM); in series [4], 0.25 µg/mL (≈ 0.712 µM); in series [5] it was 0.5 µg/mL (≈ 1.42 µM). The half-inhibitory concentration (IC50) in series [1] was over 500 µM.
Turning to `COc1c(I)cc(I)cc1C(=O)Nc1cc(C)c(C(C#N)c2ccc(Cl)cc2)cc1Cl` (stereo unspecified), the IC50 in series [1] was over 500 µM.
On to `O=C(Nc1ccc(Cl)c(Cl)c1)c1cc(Cl)cc(Cl)c1O` [3,3',4',5-TETRACHLOROSALICYLANILIDE], for which, in series [6], the lipophilicity (logP) turned out to be 4.8. The minimum inhibitory concentration (MIC) in series [2] is 0.5 µg/mL (≈ 1.42 µM); in series [3], 0.5 µg/mL (≈ 1.42 µM); in series [4], 0.25 µg/mL (≈ 0.712 µM); in series [5] it was 0.5 µg/mL (≈ 1.42 µM). In addition, the IC50 in series [1] was 45 µM.
`Cc1onc(-c2ccccc2)c1C(=O)N[C@@H]1C(=O)N2[C@@H]1SC(C)(C)[C@@H]2C(=O)O` [OXACILLIN]: the minimum inhibitory concentration (MIC) in series [2] was over 64 µg/mL; in series [3], 16 µg/mL (≈ 39.9 µM); in series [4], over 64 µg/mL; in series [5], 0.25 µg/mL (≈ 0.623 µM).
With `CN[C@H](CC(C)C)C(=O)N[C@H]1C(=O)N[C@@H](CC(N)=O)C(=O)N[C@H]2C(=O)N[C@H]3C(=O)N[C@H](C(=O)N[C@H](C(=O)O)c4cc(O)cc(O)c4-c4cc3ccc4O)[C@H](O)c3ccc(c(Cl)c3)Oc3cc2cc(c3O[C@@H]2O[C@H](CO)[C@@H](O)[C@H](O)[C@H]2O[C@H]2C[C@](C)(N)[C@H](O)[C@H](C)O2)Oc2ccc(cc2Cl)[C@H]1O` [VANCOMYCIN], the MIC in series [2] was over 128 µg/mL.
